{"source": "patent US9107876B2", "about": "“Surface anesthetic agent” (YAMAGUCHI UNIVERSITY, priority 2009, dated 2015)", "system": "buccal mucosal membrane", "assay": "Needle stab after applying the surface anesthetic agent to the buccal mucosal membrane: time for the painless effect to be exerted", "assay_type": "in vivo", "conditions": "200 mg applied with a cotton swab to the buccal mucosal membrane, then a needle stabbed", "description": "Various surface anesthetic agents mentioned above were applied to the buccal mucosal membrane, and then a needle was stabbed, and the time for the painless effect to be exerted and the time for the pain to start again were measured.\n(1) As a sample of tetracaine alone, 200 mg (12 mg tetracaine) COPALON was attached to a cotton swab, and applied to the buccal mucosal membrane.\n(2) As a sample of lidocaine alone, 200 mg Xylocaine jelly (4 mg lidocaine) was attached to a cotton swab, and applied to the buccal mucosal membrane.\n(3) As a sample of a combination use of tetracaine and lidocaine, various mixtures of tetracaine and lidocaine in 92:8, 82:18, 67:33 and 43:57 mass ratios were prepared by varying the blending ratio of COPALON and Xylocaine jelly to 80:20, 60:40, 40:60 and 20:80. 200 mg of each of the prepared mixtures was attached to a cotton swab, and applied to the buccal mucosal membrane. […]\nVarious surface anesthetic agents containing tetracaine and/or lidocaine mentioned above were applied to the buccal mucosal membrane, and then a needle was stabbed, and the time for the painless effect to be exerted and the time for the pain to start again were measured."}
{"smiles": "CCN(CC)CC(=O)Nc1c(C)cccc1C", "note": "[Comparative Example 1-2, 2-(diethylamino)-N-(2,6-dimethylphenyl) acetamide]", "values": [{"measurement": "time for the painless effect to be exerted after the application", "result": 5, "unit": "min"}]}
